These results are taken from publication PMC11995724, “Antibiotic target discovery by integrated phenotypic and activity-based profiling of electrophilic fragments” (Cell chemical biology, 2025).

The data set is described as follows: in vitro. As to conditions: human, hek293t cells.
On to `CC(Cl)C(=O)N1CC(C(=O)N2CCN(C)CC2)Oc2ccccc21` (stereo not drawn) [7-A20, 2-chloro-1-[2-(4-methylpiperazine-1-carbonyl)-3,4-dihydro-2H-1,4-benzoxazin-4-yl]propan-1-one], for which the viability at 48 h, 25 µM was 77.1%.

`Cc1ccc(NC(=O)N2CCN(C(=O)C(C)Cl)CC2)cc1Cl` (stereo not drawn) [7-A21, N-(3-chloro-4-methylphenyl)-4-(2-chloropropanoyl)piperazine-1-carboxamide]: the viability at 48 h, 25 µM is 70.8%. For `CC(Cl)C(=O)N1CCCC1c1cccc(N(C)C)c1` (stereo not drawn) [7-A22, 2-chloro-1-{2-[3-(dimethylamino)phenyl]pyrrolidin-1-yl}propan-1-one] the value was 68.7%; for `Cc1nn(-c2ccccc2)c(C)c1CN(C)C(=O)CCl` [7-B03, 2-chloro-N-[(3,5-dimethyl-1-phenyl-1H-pyrazol-4-yl)methyl]-N-methylacetamide], 0.804%; for `O=C(CCl)NC1CCCc2nc(-c3ccccc3)sc21` (stereo not drawn) [7-B04, 2-chloro-N-(2-phenyl-4,5,6,7-tetrahydro-1,3-benzothiazol-7-yl)acetamide], 0.382%. With `Cc1noc(C)c1CN(C(=O)CCl)C1CC1` [7-B05, 2-chloro-N-cyclopropyl-N-[(3,5-dimethyl-1,2-oxazol-4-yl)methyl]acetamide], the viability at 48 h, 25 µM amounted to 0.0855%. Consider `O=C(CCl)NCc1nn(-c2ccccc2)c2c1CCC2` [7-B06, 2-chloro-N-({1-phenyl-1H,4H,5H,6H-cyclopenta[c]pyrazol-3-yl}methyl)acetamide], for which the viability at 48 h, 25 µM was 0.565%. The figure for `Cc1nc2cc(=O)[nH]n2c(C)c1CNC(=O)C(C)Cl` (stereo not drawn) [7-B07, 2-chloro-N-({5,7-dimethyl-2-oxo-1H,2H-pyrazolo[1,5-a]pyrimidin-6-yl}methyl)propanamide] is 96.1%. For `O=C(CCl)NCC1CCN(C(=O)Cc2ccccc2)C1` (stereo not drawn) [7-B08, 2-chloro-N-{[1-(2-phenylacetyl)pyrrolidin-3-yl]methyl}acetamide] the value was 0.975%; for `Cc1ccc(C2OCCCC2CNC(=O)C(C)Cl)cc1` (stereo not drawn) [7-B09, 2-chloro-N-{[2-(4-methylphenyl)oxan-3-yl]methyl}propanamide], 91.9%. For `CN1C(=O)c2ccccc2C1CNC(=O)CCl` (stereo not drawn) [7-B10, 2-chloro-N-[(2-methyl-3-oxo-2,3-dihydro-1H-isoindol-1-yl)methyl]acetamide] the value was 4.11%. In the case of `CC(Cl)C(=O)N1CCCC1c1nccc(C(F)(F)F)n1` (stereo not drawn) [7-B11, 2-chloro-1-{2-[4-(trifluoromethyl)pyrimidin-2-yl]pyrrolidin-1-yl}propan-1-one], the viability at 48 h, 25 µM worked out at 106%. As to `O=C(CCl)NCC(=O)N(c1ccccc1)c1ccccc1` [7-B12, 2-chloro-N-[(diphenylcarbamoyl)methyl]acetamide], the viability at 48 h, 25 µM is 1.21%.

As for `Cc1cc(N2CCCC(NC(=O)C(C)Cl)C2=O)n(C)n1` (stereo not drawn) [7-B13, 2-chloro-N-[1-(1,3-dimethyl-1H-pyrazol-5-yl)-2-oxopiperidin-3-yl]propanamide], the viability at 48 h, 25 µM is 95.8%. For `O=C(CCl)NC1CCCOc2c(F)cccc21` (stereo not drawn) [7-B14, 2-chloro-N-(9-fluoro-2,3,4,5-tetrahydro-1-benzoxepin-5-yl)acetamide] the value was 0.886%; for `CCc1nsc(N2CCCN(C(=O)C(C)Cl)CC2)n1` (stereo not drawn) [7-B15, 2-chloro-1-[4-(3-ethyl-1,2,4-thiadiazol-5-yl)-1,4-diazepan-1-yl]propan-1-one], 84.3%. For `O=C(CCl)N(Cc1nc(C2CCCCCC2)no1)C1CC1` [7-B16, 2-chloro-N-[(3-cycloheptyl-1,2,4-oxadiazol-5-yl)methyl]-N-cyclopropylacetamide] the value was 0.667%; for `CC(Cl)C(=O)N1CCOCC1c1nc(-c2cccs2)no1` (stereo not drawn) [7-B17, 2-chloro-1-{3-[3-(thiophen-2-yl)-1,2,4-oxadiazol-5-yl]morpholin-4-yl}propan-1-one], 75.7%.

Consider `C=C(Cl)CN(C(=O)CCl)C1CCc2ccccc21` (stereo not drawn) [7-B18, 2-chloro-N-(2-chloroprop-2-en-1-yl)-N-(2,3-dihydro-1H-inden-1-yl)acetamide], for which the viability at 48 h, 25 µM turned out to be 0.322%.

As to `CC(Cl)C(=O)NC(C)c1nc(Cc2ccccc2)no1` (stereo not drawn) [7-B19, N-[1-(3-benzyl-1,2,4-oxadiazol-5-yl)ethyl]-2-chloropropanamide], the viability at 48 h, 25 µM turned out to be 79.9%. The figure for `Cc1cc(CN(C(=O)CCl)C2CCCC2)c2ccccc2n1` [7-B20, 2-chloro-N-cyclopentyl-N-[(2-methylquinolin-4-yl)methyl]acetamide] is 0.493%. The figure for `CC(Cl)C(=O)N(C)Cc1cc(C(C)(C)C)[nH]n1` (stereo not drawn) [7-B21, N-[(5-tert-butyl-1H-pyrazol-3-yl)methyl]-2-chloro-N-methylpropanamide] is 80.5%; for `O=C(CCl)NC(c1ccc(F)c(C(F)(F)F)c1)C1CC1` (stereo not drawn) [7-B22, 2-chloro-N-{cyclopropyl[4-fluoro-3-(trifluoromethyl)phenyl]methyl}acetamide] it is 0.631%. Regarding `CC(Cl)C(=O)NCC1CN(S(C)(=O)=O)C1` (stereo not drawn) [7-C04, 2-chloro-N-[(1-methanesulfonylazetidin-3-yl)methyl]propanamide], the viability at 48 h, 25 µM came out at 118%. For `CC(Cl)C(=O)N1CCCCCC1c1noc(-c2cnn(C)c2)n1` (stereo not drawn) [7-C05, 2-chloro-1-{2-[5-(1-methyl-1H-pyrazol-4-yl)-1,2,4-oxadiazol-3-yl]azepan-1-yl}propan-1-one] the value was 92.8%. For `CC(Cl)C(=O)N1CCc2ncsc2C1` (stereo not drawn) [7-C06, 2-chloro-1-{4H,5H,6H,7H-[1,3]thiazolo[5,4-c]pyridin-5-yl}propan-1-one] the value was 92.6%. The figure for `CC(Cl)C(=O)N1CCC(N(CC(F)(F)F)S(C)(=O)=O)CC1` (stereo not drawn) [7-C07, N-[1-(2-chloropropanoyl)piperidin-4-yl]-N-(2,2,2-trifluoroethyl)methanesulfonamide] is 94.8%; for `CC(Cl)C(=O)N1CCOCC1c1ncnn1Cc1ccccc1` (stereo not drawn) [7-C08, 1-[3-(1-benzyl-1H-1,2,4-triazol-5-yl)morpholin-4-yl]-2-chloropropan-1-one] it is 95.7%.

Take `CC(Cl)C(=O)N1C2C=C(c3ccccc3)CC1CC2` (stereo not drawn) [7-C09, 2-chloro-1-{3-phenyl-8-azabicyclo[3.2.1]oct-2-en-8-yl}propan-1-one]: the viability at 48 h, 25 µM was 81.3%.

Take `CC(Cl)C(=O)N(C)Cc1ncnn1CC(F)F` (stereo not drawn) [7-C10, 2-chloro-N-{[1-(2,2-difluoroethyl)-1H-1,2,4-triazol-5-yl]methyl}-N-methylpropanamide]: the viability at 48 h, 25 µM worked out at 97.8%. `CC(Cl)C(=O)NCc1csc2ccccc12` (stereo not drawn) [7-C11, N-[(1-benzothiophen-3-yl)methyl]-2-chloropropanamide]: the viability at 48 h, 25 µM is 81.9%.

As for `CC(Cl)C(=O)NCCc1c[nH]c2ncccc12` (stereo not drawn) [7-C12, 2-chloro-N-(2-{1H-pyrrolo[2,3-b]pyridin-3-yl}ethyl)propanamide], the viability at 48 h, 25 µM turned out to be 88.4%. Take `CC(Cl)C(=O)N1CCCC(NS(=O)(=O)c2cccc(F)c2)C1` (stereo not drawn) [7-C13, N-[1-(2-chloropropanoyl)piperidin-3-yl]-3-fluorobenzene-1-sulfonamide]: the viability at 48 h, 25 µM was determined as 79.3%.

The term viability denotes a read-out of living cells in per cent, often relative to untreated cells.
